16 molecules from patent publication US7960408B2, “Quinolinyl and benzothiazolyl modulators” (Amgen Inc., priority 2000, dated 2011) can be followed below.

One data set concerns the target T1, PPARγ (Homo sapiens, UniProt P37231).
T1 construct: made in house
T1 sequence (P37231 1-505): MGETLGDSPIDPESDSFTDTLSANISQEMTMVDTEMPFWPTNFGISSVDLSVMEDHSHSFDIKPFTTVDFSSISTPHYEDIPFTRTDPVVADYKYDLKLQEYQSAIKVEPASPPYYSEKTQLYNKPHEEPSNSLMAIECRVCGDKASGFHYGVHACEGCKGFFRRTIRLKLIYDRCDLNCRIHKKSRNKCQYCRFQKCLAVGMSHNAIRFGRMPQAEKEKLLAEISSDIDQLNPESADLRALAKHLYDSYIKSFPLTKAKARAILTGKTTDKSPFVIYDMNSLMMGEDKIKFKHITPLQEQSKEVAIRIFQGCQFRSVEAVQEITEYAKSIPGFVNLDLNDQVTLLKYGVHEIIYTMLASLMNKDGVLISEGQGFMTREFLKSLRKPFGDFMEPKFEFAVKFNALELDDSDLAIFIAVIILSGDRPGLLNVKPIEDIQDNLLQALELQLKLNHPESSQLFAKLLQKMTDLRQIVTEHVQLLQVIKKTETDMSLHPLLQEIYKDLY
Briefly: PPARγ ligand binding assay utilizing [3H]-BRL 49653 as the radioligand. As to conditions: concentration required to reduce by 50% the specific binding of [3H]-BRL 49653. The method in brief: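 Displacement of 10 nM [3H]-BRL 49653 from PPARγ-GST fusion protein (1 μg/well) in Tris-HCl pH 8.0 buffer with KCl, DTT, BSA and NP-40; 15 min incubation, then glutathione-bead capture for 1 h, washing and scintillation counting. IC50 is the concentration halving specific radioligand binding.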

SMILES strings stand for the structures.

Turning to `COc1ccc2nc(Oc3c(Cl)cc(NS(=O)(=O)c4ccc(C(F)(F)F)cc4Cl)cc3Cl)sc2c1` [Compound 106, 2-Chloro-N-[3,5-dichloro-4-(6-methoxybenzothiazol-2-yloxy)-phenyl]-4-trifluoromethyl-benzenesulfonamide], the melting point was in the range of 164 to 165 °C. Moreover, the IC50 on PPARγ is less than 1000 nM.

In the case of `O=C(O)c1ccc2ncc(Oc3c(Cl)cc(NS(=O)(=O)c4ccc(Cl)cc4Cl)cc3Cl)cc2c1` [Compound 47, 3-[2,6-Dichloro-4-(2,4-dichloro-benzenesulfonylamino)-phenoxy]-quinoline-6-carboxylic acid], the melting point is 228 to 232 °C. On PPARγ, this molecule yielded an IC50 of less than 1000 nM. In turn, `O=S(=O)(Nc1cc(Cl)c(Sc2cnc3ccccc3c2)c(Cl)c1)c1ccccc1Cl` [Compound 3] displayed a melting point of 219.6 °C. Moreover, the IC50 at PPARγ was less than 1000 nM. `O=S(=O)(Nc1cc(Cl)c(Oc2nc3ccc(Cl)cc3s2)c(Cl)c1)c1ccc(C(F)(F)F)cc1Cl` [Compound 103, 2-Chloro-N-[3,5-dichloro-4-(6-chloro-benzothiazol-2-yloxy)-phenyl]-4-trifluoromethyl-benzenesulfonamide] had a melting point of 82 to 84 °C. Also, on PPARγ, the IC50 is less than 1000 nM. The like results for `O=S(=O)(Nc1cc(Cl)c(Oc2nc3ccc(Cl)cc3s2)c(Cl)c1)c1ccc(Cl)cc1Cl` [Compound 104, 2,4-Dichloro-N-[3,5-dichloro-4-(6-chloro-benzothiazol-2-yloxy)-phenyl]benzenesulfonamide] were, in that order, 73 to 75 °C and 1000 to 10000 nM. Turning to `Cc1cc(S(=O)(=O)Nc2cc(Cl)c(Oc3nc4c(Cl)cccc4s3)c(Cl)c2)c(Cl)cc1Cl` [Compound 426, 2,4-Dichloro-N-[3,5-dichloro-4-(4-chloro-benzothiazol-2-yloxy)-phenyl]-5-methyl-benzenesulfonamide], the IC50 at PPARγ is less than 1000 nM. On the same count and under the same terms, as for `Cc1ccc2nc(Nc3c(Cl)cc(NS(=O)(=O)c4ccc(C(F)(F)F)cc4Cl)cc3Cl)sc2c1` [Compound 86], the figure is less than 1000 nM. Molecule `O=C(O)c1cccc2cc(Oc3c(Cl)cc(NS(=O)(=O)c4ccc(Cl)cc4Cl)cc3Cl)cnc12` [Compound 48, 3-[2,6-Dichloro-4-(2,4-dichloro-benzenesulfonylamino)-phenoxy]-quinoline-8-carboxylic acid] returned a melting point of 263 to 266 °C. For the same molecule, the IC50 at PPARγ is less than 1000 nM. At PPARγ, `COC(=O)c1ccc2ncc(Oc3c(Cl)cc(NS(=O)(=O)c4ccc(Cl)cc4Cl)cc3Cl)cc2c1` [Compound 45, 3-[2,6-Dichloro-4-(2,4-dichloro-benzenesulfonylamino)-phenoxy]-quinoline-6-carboxylic acid methyl ester] displayed an IC50 of less than 1000 nM.

`COc1cccc2sc(Oc3cc(Cl)cc(NS(=O)(=O)c4cc(C)c(Cl)cc4Cl)c3)nc12` [Compound 298, 2,4-Dichloro-N-[3-chloro-5-(4-methoxy-benzothiazol-2-yloxy)-phenyl]-5-methyl-benzenesulfonamide]: the IC50 on PPARγ is less than 1000 nM. The same measure, in the same setting: under `O=S(=O)(Nc1cc(Cl)c(Oc2nc3ccc(Cl)cc3s2)c(Cl)c1)c1ccc(OC(F)(F)F)cc1` [Compound 434, N-[3,5-Dichloro-4-(6-chloro-benzothiazol-2-yloxy)-phenyl]-4-trifluoromethoxy-benzenesulfonamide] stands 1000 to 10000 nM; under `Cc1cc(S(=O)(=O)Nc2cc(Cl)c(Cc3ccc4ccccc4n3)c(Cl)c2)c(Cl)cc1Cl` [Compound 226, 2,4-Dichloro-N-(3,5-dichloro-4-quinolin-2-ylmethyl-phenyl)-5-methyl-benzenesulfonamide], less than 1000 nM; under `O=S(=O)(Nc1cc(Cl)cc(Oc2nc3ccc(Cl)cc3s2)c1)c1ccc(C(F)(F)F)cc1Cl` [Compound 302, 2-Chloro-N-[3-chloro-5-(6-chloro-benzothiazol-2-yloxy)-phenyl]-4-trifluoromethyl-benzenesulfonamide], less than 1000 nM. On PPARγ, `Cc1ccc2nc(Oc3cc(Cl)cc(NS(=O)(=O)c4ccc(Cl)cc4Cl)c3)sc2c1` [Compound 300, 2,4-Dichloro-N-[3-chloro-5-(6-methyl-benzothiazol-2-yloxy)-phenyl]-benzenesulfonamide] showed an IC50 of less than 1000 nM. On the same count and under the same terms, as for `COc1cccc2sc(Oc3c(Cl)cc(NS(=O)(=O)c4cc(C)c(Cl)cc4Cl)cc3Cl)nc12` [Compound 429, 2,4-Dichloro-N-[3,5-dichloro-4-(4-methoxy-benzothiazol-2-yloxy)-phenyl]-5-methyl-benzenesulfonamide], the figure is less than 1000 nM; as for `O=[N+]([O-])c1ccc2nc(Oc3c(Cl)cc(NS(=O)(=O)c4ccc(C(F)(F)F)cc4Cl)cc3Cl)sc2c1` [Compound 438, 2-Chloro-N-[3,5-dichloro-4-(6-nitro-benzothiazol-2-yloxy)-phenyl]-4-trifluoromethyl-benzenesulfonamide], less than 1000 nM.

Usually IC50 stands for the concentration that inhibits the measured activity by half. In general, melting point refers to the temperature, or range, at which the solid turns liquid.
